PMC3534021, “Structure of the TPR Domain of AIP: Lack of Client Protein Interaction with the C-Terminal α-7 Helix of the TPR Domain of AIP Is Sufficient for Pituitary Adenoma Predisposition” (PLoS ONE, 2012)
Where no end group is shown, it is not given here.

Columns and labels:
full-length human HSP90β = target: T1, full-length human HSP90β (human, UniProt P08238 1-724); assay: ITC; twenty 1.9 µL aliquots of AIP TPR-domain at 350 µM injected into 30 µM human HSP90β; 20 mM Tris pH 7.5, 5 mM NaCl, 30°C
T1 construct: HSP90β, human, full length; also called FL-hHSP90β; intact HSP90
T1 sequence (P08238 whole entry): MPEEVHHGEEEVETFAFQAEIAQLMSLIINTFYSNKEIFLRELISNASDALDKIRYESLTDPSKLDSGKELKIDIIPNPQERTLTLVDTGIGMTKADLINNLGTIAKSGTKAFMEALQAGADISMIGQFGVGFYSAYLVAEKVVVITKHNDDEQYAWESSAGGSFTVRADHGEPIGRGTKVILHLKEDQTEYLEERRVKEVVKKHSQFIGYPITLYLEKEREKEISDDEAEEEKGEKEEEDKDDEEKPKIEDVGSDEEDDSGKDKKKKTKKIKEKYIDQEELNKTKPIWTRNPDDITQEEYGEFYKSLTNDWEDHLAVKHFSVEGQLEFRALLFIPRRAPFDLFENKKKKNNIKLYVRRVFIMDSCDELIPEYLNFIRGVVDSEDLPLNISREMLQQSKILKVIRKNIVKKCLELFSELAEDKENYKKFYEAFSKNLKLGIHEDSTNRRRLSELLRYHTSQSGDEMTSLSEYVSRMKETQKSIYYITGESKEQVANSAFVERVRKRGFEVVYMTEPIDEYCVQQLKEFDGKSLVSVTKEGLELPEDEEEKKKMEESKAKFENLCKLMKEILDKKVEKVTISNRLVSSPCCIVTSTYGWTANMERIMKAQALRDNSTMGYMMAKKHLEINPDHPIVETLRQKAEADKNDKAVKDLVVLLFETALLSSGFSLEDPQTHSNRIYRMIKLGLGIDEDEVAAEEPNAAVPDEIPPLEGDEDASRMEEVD

[1] = target: T2, AIP TPR-domain R304Q mutant (Homo sapiens, UniProt O00170, R304Q); assay: Isothermal titration calorimetry, R304Q AIP TPR-domain; format: binding; details: ITC, 20 mM Tris pH 7.5, 5 mM NaCl, 30°C, peptide 350-600 µM injected into 30 µM TPR-domain
T2 construct: The TPR domain (residues 166–330) of human AIP; His tag (PreScission cleavable) (cleaved yes); made in house
T2 sequence (O00170 166-330 R304Q): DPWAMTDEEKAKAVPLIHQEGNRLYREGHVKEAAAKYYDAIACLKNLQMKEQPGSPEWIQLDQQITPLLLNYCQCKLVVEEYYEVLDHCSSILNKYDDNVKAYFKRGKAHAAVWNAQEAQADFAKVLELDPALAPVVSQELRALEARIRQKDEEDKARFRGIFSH
Method: (§1) The TPR domain (residues 166–330) of human AIP was expressed as a PreScission cleavable His-tagged protein from pTWO-E (pET-17b derived; personal communication, A. W. Oliver, Sussex University). The TPR domain was purified by talon-affinity chromatography (Clontech, Oxford, UK), then concentrated and desalted on a HIPrep 26/10 desalting column equilibrated in 20 mM Tris pH 7.5 containing 1 mM EDTA. The sample was then cleaved overnight with GST-tagged PreScision protease. The cleaved protein was subsequently passed through a GST column equilibrated in 20 mM Tris pH 7.5, 1 mM EDTA and 150 mM NaCl and then through a second Talon column to remove any remaining uncleaved protein. The flow through was then concentrated and subjected to superdex 75HR gel-filtration chromatography equilibrated in 20 mM Tris pH 7.5, 1 mM EDTA, 1 mM DTT and 500 mM NaCl. Pure TPR domain were concentrated and then desalted on a HIPrep 26/10 column equilibrated in 20 mM Tris pH 7.5 containing 1 mM EDTA. The protein was stored frozen at 2 mg ml^−1.
(§2) The heat of interaction was measured on an ITC200 microcalorimeter (Microcal), with a cell volume of 200 µL, under the same buffer conditions (20 mM Tris, pH 7.5, containing 5 mM NaCl) at 30°C. Twenty 1.9 µL aliquots of AIP TPR-domain at 350 µM were injected into 30 µM of human HSP90β. For peptide interactions twenty 1.9 µL aliquots of peptide ranging from 350 to 600 µM were injected into 30 µM of AIP TPR-domain. Heats of dilution were determined in a separate experiment by diluting protein or peptide into buffer, and the corrected data were fitted using a non-linear least-squares curve-fitting algorithm (Microcal Origin) with three floating variables: stoichiometry, binding constant and change in enthalpy of interaction. ATPase assays were previously described [44]–[46].

[2] = target: T3, AIP TPR-domain R304A mutant (Homo sapiens, UniProt O00170, R304A); assay: Isothermal titration calorimetry, R304A AIP TPR-domain; format: binding; details: ITC, 20 mM Tris pH 7.5, 5 mM NaCl, 30°C, peptide 350-600 µM injected into 30 µM TPR-domain
T3 construct: The TPR domain (residues 166–330) of human AIP; His tag (PreScission cleavable) (cleaved yes); made in house
T3 sequence (O00170 166-330 R304A): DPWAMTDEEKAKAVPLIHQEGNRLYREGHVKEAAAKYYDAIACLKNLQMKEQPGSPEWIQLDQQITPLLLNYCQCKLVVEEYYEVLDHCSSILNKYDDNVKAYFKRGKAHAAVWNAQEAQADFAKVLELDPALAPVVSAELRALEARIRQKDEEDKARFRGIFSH
Method: as §1, §2

[3] = target: T4, TPR domain (residues 166–330) of human AIP, WT (Homo sapiens, UniProt O00170); assay: Isothermal titration calorimetry, wild-type AIP TPR-domain; format: binding; details: ITC; for N (stoichiometry): first value where two are printed
T4 construct: The TPR domain (residues 166–330) of human AIP; His tag (PreScission cleavable) (cleaved yes); made in house
T4 sequence (O00170 166-330): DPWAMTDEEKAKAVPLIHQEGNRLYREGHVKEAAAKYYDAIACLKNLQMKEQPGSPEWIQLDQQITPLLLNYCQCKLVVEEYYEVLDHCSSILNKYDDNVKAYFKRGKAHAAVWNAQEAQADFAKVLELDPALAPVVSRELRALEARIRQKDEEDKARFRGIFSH
Method: as §1, §2

[4] = target: AIP TPR-domain E192R mutant; assay: Isothermal titration calorimetry, E192R AIP TPR-domain; format: binding, human; details: ITC, 20 mM Tris pH 7.5, 5 mM NaCl, 30°C, 350 µM AIP TPR injected into 30 µM HSP90β
Method: as §1, with “Pure TPR domain were concentrated and then desalted on a HIPrep 26/10 column equilibrated in 20 mM Tris pH 7.5 containing 1 mM EDTA. The protein was stored frozen at 2 mg ml^−1.” left out
The heat of interaction was measured on an ITC200 microcalorimeter (Microcal), with a cell volume of 200 µL, under the same buffer conditions (20 mM Tris, pH 7.5, containing 5 mM NaCl) at 30°C. […] Heats of dilution were determined in a separate experiment by diluting protein or peptide into buffer, and the corrected data were fitted using a non-linear least-squares curve-fitting algorithm (Microcal Origin) with three floating variables: stoichiometry, binding constant and change in enthalpy of interaction. […]

AIP = details: cited from earlier work
Description: Recently, mutations in aryl hydrocarbon receptor interacting protein (AIP), [2] have been linked to familial isolated pituitary adenomas (FIPA) [3]–[5], a condition most often characterized by young-onset growth hormone and prolactin-secreting pituitary tumors (reviewed by), which leads to acromegaly and gigantism. The human AIP gene encodes a 37 kDa protein of 330 amino acids that, based on similarities to other proteins, is predicted to have an N-terminal immunophilin-like domain [7] and a C-terminal tetratricopeptide repeat (TPR) domain. Typically, TPR domains consist of ...

[5] = 20 mM Tris pH 7.5, 5 mM NaCl, 30°C

Compound: TPR domain of human AIP, E192R mutant (domain or fragment)
- Kd (full-length human HSP90β): 11.1 µM
- dH (full-length human HSP90β): -4.11 kcal/mol
- stoichiometry N (full-length human HSP90β): 0.47

Compound: CC[C@H](C)[C@H](NC(=O)[C@@H](NC(=O)[C@@H]1CCCN1C(=O)CNC(=O)[C@H](CO)NC(=O)CN)[C@@H](C)O)C(=O)N[C@@H](CCC(=O)O)C(=O)N[C@@H](CCC(=O)O)C(=O)N[C@H](C(=O)N[C@@H](CC(=O)O)C(=O)O)C(C)C [GSGPTIEEVD]
- Kd [1]: 31.1 ± 2.6 µM
- Kd [2]: 22.8 ± 1.6 µM

Compound: CSCC[C@H](NC(=O)[C@H](CCCNC(=N)N)NC(=O)[C@H](CO)NC(=O)[C@H](C)NC(=O)[C@H](CC(=O)O)NC(=O)[C@@H](N)CCC(=O)O)C(=O)N[C@@H](CCC(=O)O)C(=O)N[C@@H](CCC(=O)O)C(=O)N[C@H](C(=O)N[C@@H](CC(=O)O)C(=O)O)C(C)C [EDASRMEEVD]
- Kd ([3]; range of the two titrations as given in the text): 14.4 to 18.6 µM
- Kd [1]: 16.2 ± 1.1 µM
- Kd [2]: 15.6 ± 0.85 µM

Compound: FL-hHSP90β: full-length human HSP90β chaperone protein
- ΔH [3, 5]: -4.554 kcal/mol
- ΔS [3, 5]: 7.29 Cal/mol/deg
- N (stoichiometry) ([3]; 20 mM Tris pH 7.5, 5 mM NaCl, 30°C, for HSP90β given as AIP:HSP90): 0.30
- N (stoichiometry) ([3]; 20 mM Tris pH 7.5, 5 mM NaCl, 30°C, for HSP90β given as AIP:HSP90, listed as HSP90β): 0.3
- Kd ([3]; 20 mM Tris pH 7.5, 5 mM NaCl, 30°C, peptide 350-600 µM injected into 30 µM AIP TPR-domain (for HSP90β: 350 µM AIP TPR into 30 µM HSP90β)): 13.3 ± 1.8 µM
- Kd [4]: 11.1 ± 1.3 µM

Compound: CO[C@H]1C[C@@H]2CC[C@@H](C)[C@@](O)(O2)C(=O)C(=O)N2CCCC[C@H]2C(=O)O[C@H]([C@H](C)C[C@@H]2CC[C@@H](O)[C@H](OC)C2)CC(=O)[C@H](C)/C=C(\C)[C@@H](O)[C@@H](OC)C(=O)[C@H](C)C[C@H](C)/C=C/C=C/C=C/1C [rapamycin]
- Binding to AIP (AIP): does not bind

Compound: AQSLAEDDVE [AQSLAEDDVE]
- Kd [1]: 22.5 ± 2.2 µM
- Kd [2]: 16.6 ± 0.5 µM

Compound: C=CC[C@@H]1/C=C(\C)C[C@H](C)C[C@H](OC)[C@H]2O[C@@](O)(C(=O)C(=O)N3CCCC[C@H]3C(=O)O[C@H](/C(C)=C/[C@@H]3CC[C@@H](O)[C@H](OC)C3)[C@H](C)[C@@H](O)CC1=O)[C@H](C)C[C@@H]2OC [FK506]
- Binding to AIP (AIP): does not bind
